Consider ten compounds from PubChem BioAssay (NCI).

Among the test systems are ACHN renal; HCT-15 colon; HT29 colon; K-562 leukemia; MOLT-4 leukemia; NCI-H522 lung; OVCAR-8 ovarian; SN12C renal; SNB-75 CNS; SW-620 colon; TK-10 renal; MCF7 breast; MDA-MB-435; SK-OV-3 ovarian; T-47D breast.
Holding throughout (assay): NCI-60 cell line screen, 48 h

Several values for one entry are separate records, joined by “and”; a condition that tells them apart may be missing. Equal entries are not always repeated.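 Cultured in 96-well plates, cells were exposed to test compound for 48 hours across five concentrations. Abbreviation: GI50, concentration required for 50% inhibition of growth. TGI marks complete inhibition of growth.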

As for `COc1cccc(/C=C2\C(=O)N(C(=O)c3ccc(NC(C)=O)cc3)N=C2C)c1`, the TGI in the experiment with ACHN renal, with HCT-15 colon, in the experiment on HT29 colon, in the experiment on K-562 leukemia, in the experiment on MOLT-4 leukemia and with NCI-H522 lung was > 100 µM throughout. Also, the TGI in the experiment on OVCAR-8 ovarian, in the experiment on SN12C renal, with SNB-75 CNS, in the experiment on SW-620 colon and in the experiment with TK-10 renal was > 100 µM throughout.

For `N#C/C(N)=C(\C#N)N=CN`, the TGI with ACHN renal, in the experiment on HCT-15 colon, with HT29 colon, in the experiment on K-562 leukemia, in the experiment with MCF7 breast and with MDA-MB-435 was > 100 µM throughout. The TGI in the experiment on MOLT-4 leukemia, in the experiment on OVCAR-8 ovarian, in the experiment on SK-OV-3 ovarian, in the experiment on SN12C renal, in the experiment on SNB-75 CNS and in the experiment on SW-620 colon was > 100 µM in each case. The TGI in the experiment on T-47D breast and with TK-10 renal was > 100 µM each time.

Turning to `CCOC(=O)C1(C(=O)OCC)C[C@H](C)[C@](C)(O)C1`, the TGI in the experiment on ACHN renal, with HCT-15 colon, in the experiment with HT29 colon, in the experiment with K-562 leukemia, in the experiment with MCF7 breast and with MDA-MB-435 was > 100 µM each time. In addition, the TGI with MOLT-4 leukemia, in the experiment on NCI-H522 lung, with OVCAR-8 ovarian, in the experiment on SK-OV-3 ovarian, in the experiment on SN12C renal and in the experiment on SNB-75 CNS was > 100 µM throughout. For the same compound, the TGI in the experiment with SW-620 colon and in the experiment with TK-10 renal was > 100 µM throughout.

As for `CCO/N=C(/N)c1ncn(Cc2ccccc2)c1NCC(OCC)OCC`, the TGI in the experiment with ACHN renal, in the experiment on HCT-15 colon, in the experiment with HT29 colon, in the experiment on K-562 leukemia, with MOLT-4 leukemia and in the experiment on NCI-H522 lung was > 100 µM throughout. The TGI with OVCAR-8 ovarian, in the experiment with SK-OV-3 ovarian, with SN12C renal, with SNB-75 CNS, in the experiment on SW-620 colon and in the experiment with TK-10 renal was > 100 µM in each case.

For `CCc1c(C)c(C#N)c(=S)n(C2OC(COC(C)=O)C(OC(C)=O)C(OC(C)=O)C2OC(C)=O)c1C` (stereo not given), the GI50 with ACHN renal was > 100 µM and 18.9 µM; with SK-OV-3 ovarian it was 63.4 µM and 20.8 µM; in the experiment on TK-10 renal, 92.8 µM and 26.3 µM. For the same compound, the TGI in the experiment with ACHN renal, in the experiment on HCT-15 colon, in the experiment with HT29 colon, in the experiment with K-562 leukemia, in the experiment on MCF7 breast and in the experiment on MDA-MB-435 was > 100 µM each time. The TGI is > 100 µM with MOLT-4 leukemia; > 100 µM in the experiment with NCI-H522 lung; > 100 µM in the experiment with OVCAR-8 ovarian; > 100 µM and 84.6 µM in the experiment on SK-OV-3 ovarian; > 100 µM in the experiment with SN12C renal; > 100 µM with SW-620 colon. Also, the TGI in the experiment on T-47D breast was > 100 µM; in the experiment with TK-10 renal, > 100 µM and 69.4 µM.

Turning to `C/C=C(/C)C(=O)O[C@H]1C[C@@H]2[C@@H](O)c3occ(C)c3C[C@]2(C)[C@@H](C)C1`, the TGI with ACHN renal turned out to be 31 µM; in the experiment with HCT-15 colon, 44.3 µM; in the experiment with HT29 colon, 31.1 µM; in the experiment on K-562 leukemia, 28.5 µM; in the experiment on MCF7 breast, 38.9 µM; in the experiment on MDA-MB-435, 33 µM. The TGI is 37.1 µM with MOLT-4 leukemia; 30.6 µM in the experiment with NCI-H522 lung; 36.9 µM in the experiment with OVCAR-8 ovarian; 30.9 µM in the experiment on SK-OV-3 ovarian; 27.3 µM with SN12C renal; 32.6 µM with SW-620 colon. Also, the TGI in the experiment on T-47D breast was found to be 30 µM; with TK-10 renal it was 33.8 µM.

Take `CC(C)N1CN(C(C(=O)N[C@@H]2C(=O)N3C2SC(C)(C)C3C(=O)O)c2ccccc2)CSC1=S` (stereo not given in full): the TGI with ACHN renal is > 100 µM; with HCT-15 colon it was > 100 µM; with HT29 colon, > 100 µM; in the experiment on K-562 leukemia, > 100 µM; with MOLT-4 leukemia, > 100 µM; in the experiment with NCI-H522 lung, 72.1 µM. For the same compound, the TGI in the experiment on OVCAR-8 ovarian, with SK-OV-3 ovarian, with SN12C renal, in the experiment on SNB-75 CNS and in the experiment with TK-10 renal was > 100 µM in each case.

For `O=C1O/C(=C(/Br)c2ccc(Cl)c(Cl)c2)c2ccccc21`, the TGI with ACHN renal, in the experiment with HCT-15 colon, in the experiment on HT29 colon, in the experiment with K-562 leukemia, in the experiment with MCF7 breast and in the experiment on MDA-MB-435 was > 10 µM each time. Besides, the TGI with MOLT-4 leukemia, in the experiment with NCI-H522 lung, with OVCAR-8 ovarian, in the experiment with SK-OV-3 ovarian, in the experiment with SN12C renal and with SNB-75 CNS was > 10 µM each time. Further, the TGI in the experiment with SW-620 colon, in the experiment on T-47D breast and in the experiment on TK-10 renal was > 10 µM throughout.

`CC(=NNC(=S)Nc1ccc(C)cc1)c1cccc(C(C)=NNC(=S)Nc2ccc(C)cc2)n1`: the TGI in the experiment on ACHN renal was 95.2 µM; with HCT-15 colon it was > 100 µM; in the experiment on HT29 colon, > 100 µM; in the experiment with K-562 leukemia, 66.3 µM; with MCF7 breast, > 100 µM; in the experiment on MDA-MB-435, > 100 µM. For the same compound, the TGI is 22.9 µM in the experiment on MOLT-4 leukemia; 63.7 µM with NCI-H522 lung; 34.5 µM in the experiment on OVCAR-8 ovarian; 97.6 µM in the experiment with SK-OV-3 ovarian; > 100 µM in the experiment on SN12C renal; 85 µM in the experiment with SNB-75 CNS. The TGI in the experiment with SW-620 colon was 59.8 µM; in the experiment on T-47D breast, > 100 µM; in the experiment with TK-10 renal, > 100 µM.

Take `O=C1NC2OCC(O)C(O)C2O1` (stereo not given): the TGI in the experiment with ACHN renal, in the experiment on HCT-15 colon, in the experiment on HT29 colon, with K-562 leukemia, in the experiment with MOLT-4 leukemia and in the experiment with NCI-H522 lung was > 100 µM in each case. Further, the TGI in the experiment on OVCAR-8 ovarian, in the experiment with SK-OV-3 ovarian, in the experiment on SN12C renal, with SNB-75 CNS, in the experiment on SW-620 colon and with TK-10 renal was > 100 µM throughout.
